Values joined by “and” are separate entries in the source; they are usually repeats but may differ in a detail not shown here. Identical values can stand only once.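 The compound was tested at five concentrations on cells cultured in 96-well plates, with a 48-hour exposure period. GI50 marks 50% less growth. TGI: concentration producing complete growth inhibition.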 Where a SMILES comes first, the peptide text is derived from it. [ ]: non-standard residue; d: D form. The star is where a group is joined. ξ: configuration not given here. X3 = COc1ccc(C(N*)c2ccc(OC)cc2)cc1; NMeF = CN[C@@H](Cc1ccccc1)C(=O)O; NMeD = CN[C@@H](CC(=O)O)C(=O)O; NMeV = CN[C@H](C(=O)O)C(C)C; ξNMeV = CNC(C(=O)O)C(C)C; Boc = CC(C)(C)OC(=O)*; ξNMeA = CNC(C)C(=O)O; ξV = CC(C)C(N)C(=O)O
Key:
Assay in all cases: inhibition of tumour cell growth, NCI panel, 48 h
EKVX NSCLC = test system: EKVX NSCLC
NCI-H226 lung = test system: NCI-H226 lung
TK-10 renal = test system: TK-10 renal
DU-145 prostate = test system: DU-145 prostate
DLD-1 colon = test system: DLD-1 colon
CAKI-1 renal = test system: CAKI-1 renal
HOP-92 NSCLC = test system: HOP-92 NSCLC
SNB-75 CNS = test system: SNB-75 CNS
KM20L2 colon = test system: KM20L2 colon
DMS 273 small cell lung = test system: DMS 273 small cell lung
HS 578T breast = test system: HS 578T breast
SNB-78 CNS = test system: SNB-78 CNS

| SMILES | GI50 (EKVX NSCLC) | TGI (EKVX NSCLC) | GI50 (NCI-H226 lung) | TGI (NCI-H226 lung) | GI50 (TK-10 renal) | TGI (TK-10 renal) | TGI (DU-145 prostate) | TGI (DLD-1 colon) | GI50 (CAKI-1 renal) | TGI (CAKI-1 renal) | GI50 (HOP-92 NSCLC) | TGI (HOP-92 NSCLC) | GI50 (SNB-75 CNS) | TGI (SNB-75 CNS) | TGI (KM20L2 colon) | TGI (DMS 273 small cell lung) | TGI (HS 578T breast) | TGI (SNB-78 CNS) |
| --- | --- | --- | --- | --- | --- | --- | --- | --- | --- | --- | --- | --- | --- | --- | --- | --- | --- | --- |
| COc1ccc(C(NC(=O)C[C@@H](C(=O)N(C)C(C)C(=O)O)N(C)C(=O)[C@@H]2CCCN2C(=O)[C@H](C(C)C)N(C)C(=O)C(C(C)C)N(C)C(=O)[C@H](Cc2ccccc2)N(C)C(=O)C(NC(=O)OC(C)(C)C)C(C)C)c2ccc(OC)cc2)cc1 (stereo not given in full) (Boc-[ξV][NMeF][ξNMeV][NMeV]P[NMeD](X3)[ξNMeA]-OH) | 21.6 µM | 37.5 µM and 39.6 µM | 18 µM | 19.2 µM and 32.3 µM | 20.6 µM | 37.5 µM and 35.1 µM | 37.5 µM | 32.1 µM | 22.9 µM | 37.5 µM | 15.8 µM | 23.8 µM and 29.2 µM | 15.8 µM | 17.6 µM and 30.7 µM | 37.6 µM | 30.9 µM | 7.32 µM | 36.5 µM |
| COc1nc(NC2OC(COC(C)=O)C(OC(C)=O)C(OC(C)=O)C2OC(C)=O)c2c(OC(C)=O)cc(=O)oc2n1 (stereo not given) |  | > 100 µM |  | > 100 µM |  | > 100 µM |  | > 100 µM |  | > 100 µM |  | > 100 µM |  | > 100 µM | > 100 µM | > 100 µM |  | > 100 µM |
| CC(C)(C)c1cc2ccc(C(N)=O)cc2c(=O)[nH]1 |  | > 100 µM |  | > 100 µM |  | > 100 µM |  | > 100 µM |  | > 100 µM |  | > 100 µM |  | > 100 µM | > 100 µM | > 100 µM |  | > 100 µM |
| CN(C)CC1CC/C(=C\c2ccc(O)cc2)C1=O (stereo not given) |  | 14.4 µM |  | 25.6 µM |  | 9.01 µM | 29.6 µM | 6.27 µM |  | 3.24 µM |  | 5.82 µM |  | 25.8 µM | 22.1 µM | 9.68 µM | 40.9 µM | 17.9 µM |
